Experiment [1] deals with T1, EstA (Clostridium botulinum, UniProt A5I055).
T1 construct: gene lipA

In experiment [2] the target is T2, aAbPPO4 (Agaricus bisporus, UniProt C7FF05).
T2 construct: gene PPO4; N-terminal GST tag cleaved off with HRV 3C; expressed in E. coli BL21(DE3)
T2 sequence (C7FF05 1-379): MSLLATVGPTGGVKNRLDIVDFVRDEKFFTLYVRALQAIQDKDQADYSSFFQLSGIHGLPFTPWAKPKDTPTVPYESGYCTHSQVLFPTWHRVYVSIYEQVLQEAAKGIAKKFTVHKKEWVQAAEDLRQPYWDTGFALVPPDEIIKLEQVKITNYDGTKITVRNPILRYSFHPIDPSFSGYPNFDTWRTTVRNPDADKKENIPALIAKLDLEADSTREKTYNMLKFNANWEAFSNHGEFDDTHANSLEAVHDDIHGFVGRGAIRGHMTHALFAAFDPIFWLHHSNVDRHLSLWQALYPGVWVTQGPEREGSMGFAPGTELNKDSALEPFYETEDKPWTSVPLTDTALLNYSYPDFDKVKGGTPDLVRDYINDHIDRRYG
As to the kind of experiment: activity on dopamine after pre-incubation and ultrafiltration, […] nm. In kind it is biochemical.

T1 sequence (A5I055 1-480): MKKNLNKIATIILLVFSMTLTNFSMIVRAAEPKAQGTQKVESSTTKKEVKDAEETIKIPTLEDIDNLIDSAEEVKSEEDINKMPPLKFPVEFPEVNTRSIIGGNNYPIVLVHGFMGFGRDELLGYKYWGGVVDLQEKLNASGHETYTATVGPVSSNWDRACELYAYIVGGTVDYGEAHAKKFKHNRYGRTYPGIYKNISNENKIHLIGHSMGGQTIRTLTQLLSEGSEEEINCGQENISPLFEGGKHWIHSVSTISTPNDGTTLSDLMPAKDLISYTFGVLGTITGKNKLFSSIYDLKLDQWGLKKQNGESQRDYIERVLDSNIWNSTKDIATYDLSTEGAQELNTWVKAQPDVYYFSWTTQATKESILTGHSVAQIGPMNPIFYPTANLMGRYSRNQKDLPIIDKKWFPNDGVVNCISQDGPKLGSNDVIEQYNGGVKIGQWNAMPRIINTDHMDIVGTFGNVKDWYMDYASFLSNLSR

As for `CCCC(=O)Oc1ccc([N+](=O)[O-])cc1` [para-nitrophenyl butyrate], the “photometric, 4-nitrophenol release at 405 nm” value in experiment [1] is recorded as “on the model substrate para-nitrophenyl butyrate (pNPB) compared to the uncleaved enzyme”.

In the case of `O=S(O)O` [sodium bisulphite], the “activity on dopamine after pre-incubation and ultrafiltration, 475 nm” value in experiment [2] is “the loss of PPO activity of aAbPPO4 was verified by an activity assay with dopamine”.

The record behind these values is PMC9814219 (Communications Chemistry, 2020).
